# Legend:
# Type in all cases: biochemical
# AurC = target: T1, AurC (Homo sapiens, UniProt Q9UQB9); assay: mobility shift assay
# T1 construct: purchased Carna Biosciences
# PAK2 = target: T2, PAK2 (Homo sapiens, UniProt Q13177); assay: mobility shift assay
# T2 construct: purchased Carna Biosciences
# INSR = target: T3, INSR (Homo sapiens, UniProt P06213); assay: mobility shift assay
# T3 construct: purchased Carna Biosciences
# AurB = target: T4, AurB (Homo sapiens, UniProt Q96GD4); assay: mobility shift assay
# T4 construct: purchased Carna Biosciences
# AurA = target: T5, AurA (Homo sapiens, UniProt O14965); assay: mobility shift assay
# T5 construct: purchased Carna Biosciences
# Etk2 = target: T6, Etk2 (Homo sapiens, UniProt P28482); assay: mobility shift assay
# T6 construct: purchased Carna Biosciences
# SYK = target: T7, SYK (Homo sapiens, UniProt P43405); assay: mobility shift assay
# T7 construct: purchased Carna Biosciences
# BRAF_Cascade = target: T8, BRAF_Cascade (Homo sapiens, UniProt P15056); assay: mobility shift assay
# T8 construct: purchased Carna Biosciences
# KIT(T670I) = target: T9, KIT(T670I) (Homo sapiens, UniProt P10721, T670I); assay: mobility shift assay
# T9 construct: purchased Carna Biosciences
# MET = target: T10, MET (Homo sapiens, UniProt P08581); assay: mobility shift assay
# T10 construct: purchased Carna Biosciences
# FGFR4(V550L) = target: T11, FGFR4(V550L) (Homo sapiens, UniProt P22455, V550L); assay: mobility shift assay
# T11 construct: purchased Carna Biosciences
# CaMK2α = target: T12, CaMK2α (Homo sapiens, UniProt Q9UQM7); assay: mobility shift assay
# T12 construct: purchased Carna Biosciences
# PKD3 = target: T13, PKD3 (Homo sapiens, UniProt O94806); assay: mobility shift assay
# T13 construct: purchased Carna Biosciences
# HPK1 = target: T14, HPK1 (Homo sapiens, UniProt Q86Z02); assay: mobility shift assay
# T14 construct: purchased Carna Biosciences
# WNK2 = target: T15, WNK2 (Homo sapiens, UniProt Q9Y3S1); assay: mobility shift assay
# T15 construct: purchased Carna Biosciences
# WNK3 = target: T16, WNK3 (Homo sapiens, UniProt Q9BYP7); assay: mobility shift assay
# T16 construct: purchased Carna Biosciences
# SRC = target: T17, SRC (Homo sapiens, UniProt P12931); assay: mobility shift assay
# T17 construct: purchased Carna Biosciences
# MARK4 = target: T18, MARK4 (Homo sapiens, UniProt Q96L34); assay: mobility shift assay
# T18 construct: purchased Carna Biosciences
# CKIα = target: T19, CKIα (Homo sapiens, UniProt P48729); assay: mobility shift assay
# T19 construct: purchased Carna Biosciences
# ALK(R1275Q) = target: T20, ALK(R1275Q) (Homo sapiens, UniProt Q9UM73, R1275Q); assay: mobility shift assay
# T20 construct: purchased Carna Biosciences
# BRSK2 = target: T21, BRSK2 (Homo sapiens, UniProt Q8IWQ3); assay: mobility shift assay
# T21 construct: purchased Carna Biosciences
# Erk5 = target: T22, Erk5 (Homo sapiens, UniProt Q13164); assay: mobility shift assay
# T22 construct: purchased Carna Biosciences
# TEC = target: T23, TEC (Homo sapiens, UniProt P42680); assay: mobility shift assay
# T23 construct: purchased Carna Biosciences
# PRKX = target: T24, PRKX (Homo sapiens, UniProt P51817); assay: mobility shift assay
# T24 construct: purchased Carna Biosciences
# p38α = target: T25, p38α (Homo sapiens, UniProt Q16539); assay: mobility shift assay
# T25 construct: purchased Carna Biosciences
# ROCK2 = target: T26, ROCK2 (Homo sapiens, UniProt O75116); assay: mobility shift assay
# T26 construct: purchased Carna Biosciences
# PIK3α (PIK3CA/PIK3R1) = PIK3α (PIK3CA/PIK3R1) (Homo sapiens, UniProt P42336); assay: IC50 by mobility shift assay; details: Table 2, mobility shift assay; read-out: IC50 (μM), Kinase PIK3CA/PIK3RI
# Procedure: The compounds obtained in Production Examples described above were each measured for its IC50 value for PIK3α (PIK3CA/PIK3R1) by mobility shift assay. The mobility shift assay is a method involving separating and quantifying a substrate and a phosphorylated substrate on the basis of mobility in a capillary. Each compound was mixed at various concentrations with an assay buffer (20 mM HEPES, 2 mM DTT, 25 μM sodium cholate, 75 mM NaCl, 20 μM cantharidine) together with 21 nM PI3K, 1,000 nM phosphatidyl inositol, 50 μM ATP, and 5 mM MgCl, and the mixture was subjected to a reaction at room temperature for 5 hours, followed by the mobility shift assay. The test was repeated twice. The enzymatic reaction was assessed on the basis of a product ratio (P/(P+S)) calculated from the height of a substrate peptide peak (S) and the height of a phosphorylated peptide peak (P). An inhibition rate was calculated from a signal obtained when each compound was added, with the average signal of a control containing all reaction components being defined as 0% inhibition and the average signal of a background (no enzyme added) being defined as 100% inhibition.
# The compounds produced in Production Examples described above were each assessed for its inhibitory activity against CDK7, PIM2, and PI3K by mobility shift assay. In addition, a combination showing the highest inhibitory activity against each kinase is indicated by italics.
# TSSK2 = target: T27, TSSK2 (Homo sapiens, UniProt Q96PF2); assay: mobility shift assay
# T27 construct: purchased Carna Biosciences
# CRIK = target: T28, CRIK (Homo sapiens, UniProt O14578); assay: mobility shift assay
# T28 construct: purchased Carna Biosciences
# FLT4 = target: T29, FLT4 (Homo sapiens, UniProt P35916); assay: mobility shift assay
# T29 construct: purchased Carna Biosciences
# AMPKα1/β1/γ1 = target: T30, AMPKα1/β1/γ1 (Homo sapiens, UniProt Q13131); assay: mobility shift assay
# T30 construct: purchased Carna Biosciences
# CDK2/CycA2 = target: T31, CDK2/CycA2 (Homo sapiens, UniProt P24941); assay: mobility shift assay
# T31 construct: purchased Carna Biosciences
# MARK3 = target: T32, MARK3 (Homo sapiens, UniProt P27448); assay: mobility shift assay
# T32 construct: purchased Carna Biosciences
# CaMK1δ = target: T33, CaMK1δ (Homo sapiens, UniProt Q8IU85); assay: mobility shift assay
# T33 construct: purchased Carna Biosciences
# T21 sequence (Q8IWQ3 whole entry): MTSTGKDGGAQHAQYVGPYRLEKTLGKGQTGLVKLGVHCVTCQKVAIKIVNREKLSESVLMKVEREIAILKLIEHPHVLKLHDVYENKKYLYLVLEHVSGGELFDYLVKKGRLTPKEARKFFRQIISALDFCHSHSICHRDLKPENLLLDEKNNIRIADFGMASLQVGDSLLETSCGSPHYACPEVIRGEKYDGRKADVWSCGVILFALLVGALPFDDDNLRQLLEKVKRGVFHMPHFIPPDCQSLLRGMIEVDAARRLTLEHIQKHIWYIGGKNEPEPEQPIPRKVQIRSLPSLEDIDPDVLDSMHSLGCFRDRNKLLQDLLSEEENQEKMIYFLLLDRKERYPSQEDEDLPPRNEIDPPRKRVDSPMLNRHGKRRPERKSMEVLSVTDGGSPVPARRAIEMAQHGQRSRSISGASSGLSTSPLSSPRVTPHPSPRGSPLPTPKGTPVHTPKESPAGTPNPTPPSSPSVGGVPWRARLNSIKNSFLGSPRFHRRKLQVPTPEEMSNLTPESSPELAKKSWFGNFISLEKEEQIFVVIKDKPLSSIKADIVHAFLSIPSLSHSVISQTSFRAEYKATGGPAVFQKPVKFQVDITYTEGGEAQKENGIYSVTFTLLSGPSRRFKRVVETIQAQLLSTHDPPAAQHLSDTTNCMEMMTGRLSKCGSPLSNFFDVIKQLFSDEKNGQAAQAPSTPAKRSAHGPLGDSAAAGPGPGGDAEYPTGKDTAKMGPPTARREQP
# T14 sequence (Q86Z02 156-555 limits assumed): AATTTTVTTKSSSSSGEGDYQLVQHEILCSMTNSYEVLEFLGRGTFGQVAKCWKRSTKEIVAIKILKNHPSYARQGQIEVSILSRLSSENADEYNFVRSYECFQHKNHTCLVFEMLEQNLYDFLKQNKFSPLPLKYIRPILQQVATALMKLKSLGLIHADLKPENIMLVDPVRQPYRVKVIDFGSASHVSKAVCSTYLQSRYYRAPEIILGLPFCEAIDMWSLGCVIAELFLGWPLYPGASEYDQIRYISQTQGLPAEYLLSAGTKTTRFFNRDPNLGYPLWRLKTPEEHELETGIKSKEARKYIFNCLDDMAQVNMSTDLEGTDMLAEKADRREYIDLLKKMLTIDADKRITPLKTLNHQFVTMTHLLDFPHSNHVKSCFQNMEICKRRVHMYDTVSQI
# T23 sequence (P42680 whole entry): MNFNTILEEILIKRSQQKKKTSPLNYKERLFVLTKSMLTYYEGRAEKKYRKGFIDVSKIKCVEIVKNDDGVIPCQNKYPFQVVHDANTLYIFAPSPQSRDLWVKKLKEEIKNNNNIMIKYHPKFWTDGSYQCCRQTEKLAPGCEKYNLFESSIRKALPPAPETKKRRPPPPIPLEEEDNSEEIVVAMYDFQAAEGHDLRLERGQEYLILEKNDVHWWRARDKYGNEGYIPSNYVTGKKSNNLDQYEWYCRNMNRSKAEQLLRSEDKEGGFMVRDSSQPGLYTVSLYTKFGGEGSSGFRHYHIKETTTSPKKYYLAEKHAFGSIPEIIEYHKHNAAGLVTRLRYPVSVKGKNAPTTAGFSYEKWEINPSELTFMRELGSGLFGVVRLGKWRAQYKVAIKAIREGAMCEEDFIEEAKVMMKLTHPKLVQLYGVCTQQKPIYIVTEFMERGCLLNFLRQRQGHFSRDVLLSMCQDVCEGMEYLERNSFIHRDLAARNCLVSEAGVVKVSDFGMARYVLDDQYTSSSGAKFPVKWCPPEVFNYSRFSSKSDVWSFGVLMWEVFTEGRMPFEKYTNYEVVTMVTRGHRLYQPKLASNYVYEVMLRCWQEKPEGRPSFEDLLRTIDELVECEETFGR
# T29 sequence (P35916 25-1363): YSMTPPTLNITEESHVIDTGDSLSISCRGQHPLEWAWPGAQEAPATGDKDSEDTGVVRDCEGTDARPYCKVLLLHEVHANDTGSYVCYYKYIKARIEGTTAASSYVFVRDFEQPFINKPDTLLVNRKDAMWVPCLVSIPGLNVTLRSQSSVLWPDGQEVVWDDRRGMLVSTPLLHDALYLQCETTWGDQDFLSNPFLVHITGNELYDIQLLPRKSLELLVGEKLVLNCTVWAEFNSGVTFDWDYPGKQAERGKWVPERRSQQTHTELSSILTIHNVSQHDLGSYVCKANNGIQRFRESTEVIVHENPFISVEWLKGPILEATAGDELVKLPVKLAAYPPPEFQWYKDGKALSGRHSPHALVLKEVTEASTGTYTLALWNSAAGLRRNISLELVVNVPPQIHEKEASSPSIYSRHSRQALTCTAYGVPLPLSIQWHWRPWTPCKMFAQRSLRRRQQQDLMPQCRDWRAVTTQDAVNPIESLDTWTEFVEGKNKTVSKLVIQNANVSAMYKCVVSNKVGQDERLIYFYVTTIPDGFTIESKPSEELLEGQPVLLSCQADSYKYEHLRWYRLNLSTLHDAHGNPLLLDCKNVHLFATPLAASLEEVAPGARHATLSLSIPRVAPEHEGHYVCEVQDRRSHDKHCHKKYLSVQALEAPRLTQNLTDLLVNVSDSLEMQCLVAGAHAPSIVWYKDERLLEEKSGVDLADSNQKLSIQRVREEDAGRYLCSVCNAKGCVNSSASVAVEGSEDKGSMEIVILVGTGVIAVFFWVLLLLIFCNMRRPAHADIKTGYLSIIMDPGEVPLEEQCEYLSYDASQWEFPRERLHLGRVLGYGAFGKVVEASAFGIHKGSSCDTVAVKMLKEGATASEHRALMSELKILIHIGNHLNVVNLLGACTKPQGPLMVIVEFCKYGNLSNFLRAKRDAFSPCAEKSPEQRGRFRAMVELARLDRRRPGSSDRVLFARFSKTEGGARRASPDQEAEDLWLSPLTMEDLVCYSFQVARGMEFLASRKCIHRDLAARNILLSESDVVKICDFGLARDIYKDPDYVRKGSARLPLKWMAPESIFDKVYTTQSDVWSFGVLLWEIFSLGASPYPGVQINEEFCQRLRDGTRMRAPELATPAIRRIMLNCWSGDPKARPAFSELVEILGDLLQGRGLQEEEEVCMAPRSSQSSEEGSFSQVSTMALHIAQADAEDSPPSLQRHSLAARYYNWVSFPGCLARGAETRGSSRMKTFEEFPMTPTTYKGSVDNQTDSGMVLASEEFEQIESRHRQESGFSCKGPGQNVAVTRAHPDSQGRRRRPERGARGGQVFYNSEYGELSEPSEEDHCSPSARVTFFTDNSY
# T19 sequence (P48729 whole entry): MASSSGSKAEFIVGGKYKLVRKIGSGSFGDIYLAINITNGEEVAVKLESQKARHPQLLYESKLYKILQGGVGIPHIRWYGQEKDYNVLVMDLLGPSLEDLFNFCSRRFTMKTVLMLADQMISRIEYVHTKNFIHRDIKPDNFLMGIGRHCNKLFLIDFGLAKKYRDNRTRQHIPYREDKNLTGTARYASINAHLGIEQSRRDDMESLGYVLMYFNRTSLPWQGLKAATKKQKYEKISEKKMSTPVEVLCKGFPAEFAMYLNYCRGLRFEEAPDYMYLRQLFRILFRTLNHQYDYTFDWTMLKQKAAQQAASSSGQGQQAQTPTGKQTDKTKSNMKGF
# T32 sequence (P27448 whole entry): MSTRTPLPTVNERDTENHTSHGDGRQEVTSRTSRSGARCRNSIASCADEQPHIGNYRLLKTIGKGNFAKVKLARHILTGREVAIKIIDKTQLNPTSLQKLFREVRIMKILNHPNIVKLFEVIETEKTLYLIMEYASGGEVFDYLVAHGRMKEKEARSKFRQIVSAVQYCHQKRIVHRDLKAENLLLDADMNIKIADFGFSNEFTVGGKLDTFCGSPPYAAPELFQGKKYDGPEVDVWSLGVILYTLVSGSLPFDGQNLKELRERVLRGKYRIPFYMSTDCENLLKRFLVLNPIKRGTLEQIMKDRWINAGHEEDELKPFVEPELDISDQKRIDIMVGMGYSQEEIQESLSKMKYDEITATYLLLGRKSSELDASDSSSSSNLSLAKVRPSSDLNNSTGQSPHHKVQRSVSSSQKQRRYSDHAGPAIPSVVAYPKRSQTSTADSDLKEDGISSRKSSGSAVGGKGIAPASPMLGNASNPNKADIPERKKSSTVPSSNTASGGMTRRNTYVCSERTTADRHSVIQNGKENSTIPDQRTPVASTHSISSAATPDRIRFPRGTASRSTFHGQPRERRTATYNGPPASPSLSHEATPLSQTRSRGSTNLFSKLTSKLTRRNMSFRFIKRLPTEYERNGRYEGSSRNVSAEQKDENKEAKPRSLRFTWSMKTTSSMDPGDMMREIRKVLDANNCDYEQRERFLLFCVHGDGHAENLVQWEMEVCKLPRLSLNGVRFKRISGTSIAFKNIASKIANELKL
# T25 sequence (Q16539 whole entry): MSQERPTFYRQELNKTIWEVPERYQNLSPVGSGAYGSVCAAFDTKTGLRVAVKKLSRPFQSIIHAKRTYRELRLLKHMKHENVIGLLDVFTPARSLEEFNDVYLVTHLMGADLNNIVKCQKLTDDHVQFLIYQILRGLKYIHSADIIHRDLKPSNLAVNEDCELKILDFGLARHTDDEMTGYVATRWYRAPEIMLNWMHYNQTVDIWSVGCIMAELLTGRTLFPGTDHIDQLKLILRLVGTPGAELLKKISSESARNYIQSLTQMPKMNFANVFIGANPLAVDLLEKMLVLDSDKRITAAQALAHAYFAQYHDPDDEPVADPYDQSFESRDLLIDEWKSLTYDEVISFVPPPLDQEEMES
# T6 sequence (P28482 whole entry): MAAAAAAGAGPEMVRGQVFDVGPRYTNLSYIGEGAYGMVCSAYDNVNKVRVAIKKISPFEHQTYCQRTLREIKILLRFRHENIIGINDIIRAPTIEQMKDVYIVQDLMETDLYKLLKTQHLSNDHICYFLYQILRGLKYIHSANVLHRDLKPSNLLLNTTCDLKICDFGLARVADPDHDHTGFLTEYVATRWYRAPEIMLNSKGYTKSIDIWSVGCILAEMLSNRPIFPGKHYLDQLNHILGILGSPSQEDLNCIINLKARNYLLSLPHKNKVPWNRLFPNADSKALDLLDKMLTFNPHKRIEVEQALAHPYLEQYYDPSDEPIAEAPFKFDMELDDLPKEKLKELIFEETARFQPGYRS
smiles,measurement,setting,value
"C[C@@H]1CC[C@H]2C(C)(C)CCC[C@]2(C)c2c1oc1c(C=O)c(O)c(O)cc21 [LG-1, liphagal]",inhibition at 10 µM,AurC,36.3%
same,inhibition at 10 µM,PAK2,12.4%
same,inhibition at 10 µM,INSR,14.1%
same,inhibition at 10 µM,AurB,12.1%
same,inhibition at 10 µM,AurA,53.9%
same,inhibition at 10 µM,Etk2,6.2%
same,inhibition at 10 µM,SYK,17%
same,inhibition at 10 µM,BRAF_Cascade,15%
same,inhibition at 10 µM,KIT(T670I),5.4%
same,inhibition at 10 µM,MET,-1.3%
same,inhibition at 10 µM,FGFR4(V550L),7.8%
same,inhibition at 10 µM,CaMK2α,-0.5%
same,inhibition at 10 µM,PKD3,2.7%
same,inhibition at 10 µM,HPK1,26.1%
same,inhibition at 10 µM,WNK2,20.7%
same,inhibition at 10 µM,WNK3,19%
same,inhibition at 10 µM,SRC,-7.1%
same,inhibition at 10 µM,MARK4,-3.8%
same,inhibition at 10 µM,CKIα,20.5%
same,inhibition at 10 µM,ALK(R1275Q),-0.5%
same,inhibition at 10 µM,BRSK2,9.3%
same,inhibition at 10 µM,Erk5,0.6%
same,inhibition at 10 µM,TEC,-1.2%
same,inhibition at 10 µM,PRKX,20%
same,inhibition at 10 µM,p38α,0.1%
same,inhibition at 10 µM,ROCK2,2%
same,IC50,PIK3α (PIK3CA/PIK3R1),4.12 µM
same,inhibition at 10 µM,TSSK2,21%
same,inhibition at 10 µM,CRIK,-0.8%
same,inhibition at 10 µM,FLT4,2.1%
same,inhibition at 10 µM,AMPKα1/β1/γ1,19.9%
same,inhibition at 10 µM,CDK2/CycA2,10.3%
same,inhibition at 10 µM,MARK3,-2.9%
same,inhibition at 10 µM,CaMK1δ,57.7%

# From US11691980B2, “Liphagal analog and multi-targeted kinase inhibitor containing liphagal or analog thereof” (TOHOKU UNIVERSITY, priority 2017, dated 2023)
